Results published in publication PMC4680881 (Scientific Reports, 2015).
Values joined by “and” are separate entries in the source; they are usually repeats but may differ in a detail not shown here. Equal values may be shown once. Read-outs that look alike come from different tables or passages of the source.

What was measured:
rMoPrP aggregates [1] = target: T1, rMoPrP aggregates (Mus musculus, UniProt P04925); assay: biochemical; type: binding
PrP^Sc deposits [2] = target: T2, PrP^Sc deposits (Mus musculus, UniProt P04925); type: in vivo
T2 sequence (P04925 23-230 limits assumed): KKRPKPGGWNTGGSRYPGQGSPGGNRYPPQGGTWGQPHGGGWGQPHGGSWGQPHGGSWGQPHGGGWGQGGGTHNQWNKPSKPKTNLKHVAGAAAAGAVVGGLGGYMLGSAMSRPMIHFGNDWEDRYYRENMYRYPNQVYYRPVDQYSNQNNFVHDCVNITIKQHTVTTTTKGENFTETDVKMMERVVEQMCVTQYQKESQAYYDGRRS

PrP^Sc deposits [3] = target: T2, PrP^Sc deposits; type: in vivo; remark: listed apart in the source
rMoPrP aggregates [4] = target: T1, rMoPrP aggregates; assay: biochemical; type: binding; remark: listed apart in the source
Aβ aggregates = conditions: cited from earlier work
PrP^Sc deposits [5] = target: T2, PrP^Sc deposits; conditions: 100 μM compound; for Fluorescence staining: brain sections from mock-infected mice; for Fluorescence staining of PrP^Sc deposits: brain slices from mBSE-infected mice
amyloid plaques = conditions: cited from earlier work
Aβ (1–42) fibrils = conditions: cited from earlier work
PrP^Sc deposits [6] = target: T2, PrP^Sc deposits
[7] = mouse, in vivo; cited from earlier work

T1 sequence (P04925 23-231 limits assumed): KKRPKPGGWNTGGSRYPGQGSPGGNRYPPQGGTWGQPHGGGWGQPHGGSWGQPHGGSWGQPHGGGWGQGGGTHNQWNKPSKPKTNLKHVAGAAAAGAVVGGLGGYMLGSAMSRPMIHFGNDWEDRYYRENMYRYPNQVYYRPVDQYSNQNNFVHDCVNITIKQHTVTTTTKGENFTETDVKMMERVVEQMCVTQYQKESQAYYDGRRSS

CN(C)c1ccc(/C=C/C(=O)c2ccc([125I])cc2)cc1 [[^125I]CL-NMe2]
Bmax (rMoPrP aggregates [1]): 16.7 pmol/nmol protein
Kd (rMoPrP aggregates [1]): 246 nM and 224 nM

COc1ccc(/C=C/c2cc(=O)c3cc([123I])ccc3o2)cc1 [[^123I]SC-OMe]
%SUV (PrP^Sc deposits [2]; early period (15–48 min), PBS-injected ipsilateral hemisphere of mock-infected mice): 13.4 %SUV
%SUV (PrP^Sc deposits [2]; early period (15–48 min), PrP^Sc-positive upper right hemisphere of mBSE-infected mouse): 46.5 %SUV
%SUV (PrP^Sc deposits [2]; early period (15–48 min), contralateral site of mBSE-infected mice): 23.3 %SUV
%SUV (PrP^Sc deposits [2]; late period (50–85 min), contralateral site of mBSE-infected mice): 3.7 %SUV
%SUV (PrP^Sc deposits [2]; late period (50–85 min), ipsilateral site of mock-infected mice): 3.5 %SUV
%SUV (PrP^Sc deposits [2]; late period (50–85 min), right hemisphere of mBSE-infected mice): 7.5 %SUV
Ex vivo autoradiography, accumulation in PrP^Sc-positive regions (PrP^Sc deposits [3]; mBSE-infected mice): significant [^123I]SC-OMe accumulation
Ex vivo autoradiography, accumulation in contralateral site (PrP^Sc deposits [3]; mBSE-infected mice): no significant accumulation
Ex vivo autoradiography, binding in mock-infected mouse brain (PrP^Sc deposits [3]; mock-infected mice): low signals

O=c1cc(/C=C/c2ccc(OCCO)cc2)oc2ccc(I)cc12 [SC-OEtOH, (E)-6-Iodo-2-(4-hydroxyethoxystyryl)-chromone]
Ki (rMoPrP aggregates [4]): 221 ± 46.7 nM

CN(C)c1ccc(/C=C2\Oc3ccc([125I])cc3C2=O)cc1 [[^125I]AR-NMe2]
Bmax (rMoPrP aggregates [1]): 34.9 pmol/nmol protein
Kd (rMoPrP aggregates [1]): 125 nM and 119 nM

CN(C)c1ccc(-c2cc(=O)c3cc(I)ccc3o2)cc1 [FL-NMe2, 6-Iodo-4′-dimethyaminoflavone]
Binding affinity for Aβ aggregates (Aβ aggregates): high binding affinities
Fluorescence staining (PrP^Sc deposits [5]): Only background signals
Staining of amyloid plaques (amyloid plaques): clearly stained amyloid plaques

O=c1cc(/C=C/c2ccc(O)cc2)oc2ccc(I)cc12 [SC-OH, (E)-6-Iodo-2-(4-hydroxylstyryl)-chromone]
Ki (rMoPrP aggregates [4]): 35 ± 3.72 nM

CN(C)c1ccc(/C=C/c2cc(=O)c3cc([125I])ccc3o2)cc1 [[^125I]SC-NMe2]
fold higher binding affinity compared with [125I]AR-NMe2 (rMoPrP aggregates [1]): 3.5 fold
Kd (rMoPrP aggregates [1]): 24.5 nM and 36.7 nM

[125I]c1ccc2nc(-c3ccc(-c4ccn[nH]4)cc3)cn2c1 [^125I-DRM106]
Bmax (Aβ (1–42) fibrils): 34.3 pmol/nmol

COc1ccc(/C=C/c2cc(=O)c3cc(I)ccc3o2)cc1OC [SC-(OMe)2, (E)-6-Iodo-2-(3,4-dimethoxystyryl) chromone]
Fluorescence staining (PrP^Sc deposits [5]): no significant signals
Fluorescence staining of PrP^Sc deposits (PrP^Sc deposits [5]): clear fluorescence images
Ki (rMoPrP aggregates [4]): 26.6 ± 1.48 nM

Nc1ccc(/C=C/c2cc(=O)c3cc(I)ccc3o2)cc1 [SC-NH2, (E)-6-Iodo-2-(4-aminostyryl)-chromone]
Ki (rMoPrP aggregates [4]): 58.7 ± 5.93 nM
fold lower binding affinity than SC-OMe (rMoPrP aggregates [4]): 2.8 fold

Ic1ccc2nc(-c3ccc(-c4ccn[nH]4)cc3)cn2c1 [^125I-DRM106]
Kd (Aβ (1–42) fibrils): 10.1 nM

COc1ccc(/C=C/c2cc(=O)c3cc(I)ccc3o2)cc1 [SC-OMe, (E)-6-Iodo-2-(4-methoxystyryl) chromone]
Fluorescence staining (PrP^Sc deposits [5]): no significant signals
Fluorescence staining of PrP^Sc deposits (PrP^Sc deposits [5]): clear fluorescence images
Ki (rMoPrP aggregates [4]): 20.8 ± 0.69 nM

CNc1ccc(C=Cc2cc(=O)c3cc([125I])ccc3o2)cc1 [[^125I]SC-NHMe]
In vitro autoradiography, distribution of radioactivity (PrP^Sc deposits [6]; brain sections of mock-infected mice): homogeneous distribution of radioactivity
In vitro autoradiography, signal in PrP^Sc deposit region (PrP^Sc deposits [6]; mBSE-infected mice, right corpus callosum region): high level of background and no significant accumulation of prion deposits

CN(C)c1ccc(/C=C/C(=O)c2ccc(I)cc2)cc1 [CL-NMe2, (E)-3-(4-(Dimethylamino)phenyl)-1-(4-iodophenyl) prop-2-en-1-one]
Binding affinity for Aβ aggregates (Aβ aggregates): high binding affinities
Fluorescence staining (PrP^Sc deposits [5]): Only background signals
Staining of amyloid plaques (amyloid plaques): clearly stained amyloid plaques

CN(C)c1ccc(/C=C/c2cc(=O)c3cc(I)ccc3o2)cc1 [SC-NMe2, (E)-6-Iodo-2-(4-(dimethylamino)styryl)-chromone]
Binding affinity for Aβ aggregates (Aβ aggregates): high binding affinities
Bmax (rMoPrP aggregates [1]): 36.3 pmol/nmol protein
Kd (rMoPrP aggregates [1]): 24.5 nM
Fluorescence staining (PrP^Sc deposits [5]): Only background signals
Fluorescence staining of PrP^Sc deposits (PrP^Sc deposits [5]): clearly labelled PrP^Sc deposits
Brain uptake and washout [7]: low brain uptake and slow washout
Staining of amyloid plaques (amyloid plaques): clearly stained amyloid plaques

CNc1ccc(/C=C/c2cc(=O)c3cc(I)ccc3o2)cc1 [SC-NHMe, (E)-6-Iodo-2-(4-(methylamino)styryl)-chromone]
Fluorescence staining (PrP^Sc deposits [5]): no significant signals
Fluorescence staining of PrP^Sc deposits (PrP^Sc deposits [5]): clear fluorescence images
Ki (rMoPrP aggregates [4]): 17 ± 5.41 nM

CN(C)c1ccc(C=C2Oc3ccc(I)cc3C2=O)cc1 [AR-NMe2, 2-[(4-Dimethylaminophenyl)methylene]-5-iodo-3(2H)-benzofuranone]
Binding affinity for Aβ aggregates (Aβ aggregates): high binding affinities
Fluorescence staining (PrP^Sc deposits [5]): Only background signals
Staining of amyloid plaques (amyloid plaques): clearly stained amyloid plaques

CN(C)c1ccc(-c2cc(=O)c3cc([125I])ccc3o2)cc1 [[^125I]FL-NMe2]
Bmax (rMoPrP aggregates [1]): 11.2 pmol/nmol protein
Kd (rMoPrP aggregates [1]): 201 nM
